# Data: EP4617261A1, “2,4,5-TRISUBSTITUTED PYRIMIDINE COMPOUND, PREPARATION METHOD THEREFOR, AND USE THEREOF” (Wenzhou Medical University, priority 2022, dated 2024)
# Key:
# MRC-5 = assay: MTT assay, cell proliferation, MRC-5; type: cell-based; conditions: Homo sapiens, MRC5, MRC-5 cells, 72 h
# Description: (§1) The effect of active compounds on cell proliferation was measured using an MTT assay. An experimental method was described as follows: the compounds under test were first dissolved in DMSO to prepare a stock solution, which was then diluted in gradient with a culture medium of the corresponding cells to prepare test samples, with a final concentration range of the compounds up to 20 µM. Cells in a logarithmic growth phase were seeded into 96-well cell culture plates at an appropriate density, and cultured overnight under corresponding culture conditions, and samples of the compound under test were added and continuously cultured for 72 h.
# H1581 = assay: MTT assay, cell proliferation, H1581; type: cell-based; conditions: Homo sapiens, NCI-H1581, H1581 cells, 72 h
# Description: as §1
# FGFR1 kinase = biological target: T1, FGFR1 kinase (Homo sapiens, UniProt P11362); assay: LANCE ULTRA Assay, inhibitory activity on FGFR1 kinase; type: biochemical; conditions: for inhibition at 1 µM: read-out: In vitro FGFR1 kinase inhibition rate (%) (Concentration in 1000 nM), Concentration 1000 nM; for inhibition at 0.1 µM: read-out: In vitro FGFR1 kinase inhibition rate (%) (Concentration in 100 nM), Concentration 100 nM
# T1 construct: purchased CARNA
# Description: The inhibitory activity of the compounds on FGFR1 kinase was determined using a LANCE ULTRA Assay. The FGFR1 kinase was purchased from CARNA. Specific method was as follows: the compounds under test, adenosine triphosphate (ATP), specific substrate, and FGFR1 kinase were diluted with kinase diluent. A kinase reaction mixture contained FGFR1, ATP, substrate, HEPES (pH = 7.5), MgCl2, EGTA, and Tween-20. A group without any test compound served as a 100% phosphorylation control, and a group where EDTA was added immediately after the addition of FGFR1 kinase served as a 0% phosphorylation control. The kinase reaction mixture was incubated at room temperature for 1 h, and EDTA was added to terminate the reaction for 5 min, a specific antibody was then added, and the mixture was incubated at room temperature for another 1 h, and excitation light was detected using a PerkinElmer Envision Kinase Reader.
# A549 = assay: MTT assay, cell proliferation, A549; type: cell-based; conditions: Homo sapiens, A549 cells, 72 h
# Description: as §1, with “An” for “The effect of active compounds on cell proliferation was measured using an MTT assay. An”
# T1 sequence (P11362 22-822): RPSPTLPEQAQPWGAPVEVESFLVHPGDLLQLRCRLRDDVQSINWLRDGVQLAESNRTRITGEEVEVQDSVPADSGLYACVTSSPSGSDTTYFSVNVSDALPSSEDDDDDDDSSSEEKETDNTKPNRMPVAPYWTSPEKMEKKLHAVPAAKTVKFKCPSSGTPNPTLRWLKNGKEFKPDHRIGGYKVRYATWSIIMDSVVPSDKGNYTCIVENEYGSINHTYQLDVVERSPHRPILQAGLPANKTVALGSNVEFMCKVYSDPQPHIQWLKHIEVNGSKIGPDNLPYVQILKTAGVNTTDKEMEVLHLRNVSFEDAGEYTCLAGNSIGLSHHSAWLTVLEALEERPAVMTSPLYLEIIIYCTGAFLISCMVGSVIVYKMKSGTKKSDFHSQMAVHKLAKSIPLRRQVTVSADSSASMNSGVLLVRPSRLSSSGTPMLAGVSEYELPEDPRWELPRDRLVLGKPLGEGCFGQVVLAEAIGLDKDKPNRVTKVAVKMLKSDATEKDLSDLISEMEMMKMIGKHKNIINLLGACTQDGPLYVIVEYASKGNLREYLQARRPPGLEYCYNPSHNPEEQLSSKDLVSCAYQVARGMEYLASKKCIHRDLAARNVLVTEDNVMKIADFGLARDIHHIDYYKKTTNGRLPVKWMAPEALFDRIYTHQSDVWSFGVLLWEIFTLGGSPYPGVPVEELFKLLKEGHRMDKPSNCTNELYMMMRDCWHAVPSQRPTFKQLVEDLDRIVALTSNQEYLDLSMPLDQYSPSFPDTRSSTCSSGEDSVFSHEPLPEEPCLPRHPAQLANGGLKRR
Compound,inhibition at 0.1 µM (FGFR1 kinase),also measured
"CCN1CCN(c2ccc(Nc3cc(N(C)C(=O)Nc4c(Cl)c(OC)cc(OC)c4Cl)ncn3)cc2)CC1 [BGJ398, reference compound]",–,IC50 (MRC-5): 144 µM; IC50 (H1581): 0.0867 ± 0.00151 µM
C=CC(=O)Nc1ccccc1Nc1nc(Nc2ccc(N3CCN(C)CC3)cc2)ncc1Cl [Compound 9],–,inhibition at 1 µM (FGFR1 kinase): 94.9%
C=CC(=O)Nc1cccc(C)c1Nc1nc(Nc2ccc(N3CCN(C)CC3)cc2)ncc1F [Compound 10],–,inhibition at 1 µM (FGFR1 kinase): 1.23%
C=CC(=O)Nc1ccc(CCNc2nc(Nc3ccc(N4CCN(C)CC4)cc3)ncc2F)cc1 [Compound 17],43%,–
C=CC(=O)Nc1ccc(CNc2nc(Nc3ccc(N4CCN(C)CC4)cc3)ncc2F)cc1 [Compound 18],5.5%,–
"C=CC(=O)Nc1ccc(CCNc2nc(Nc3ccc(N4CCN(C)CC4)cc3)ncc2Cl)cc1 [Compound 33, N-(4-(2-((5-chloro-2-((4-(4-methylpiperazine-1-yl)phenyl)amino)pyrimidine-4-yl)amino)ethyl)phenyl)acrylamide]",66.4%,IC50 (FGFR1 kinase; read-out: In vitro FGFR1 kinase IC50 value): 60.7 nM
"C=CC(=O)NC(=O)c1ccc(Nc2nc(Nc3ccc(N4CCN(C)CC4)cc3)ncc2Cl)cc1Cl [Compound 38, N-acryloyl-2-chloro-4-((5-chloro-2-((4-(4-methylpiperazine-1-yl)phenyl)amino)pyrimidine-4-yl)amino)benzamide]",50.3%,–
C=CC(=O)Nc1ccc(Nc2nc(Nc3ccc(N4C[C@@H](C)N[C@@H](C)C4)c(OC)c3)ncc2Cl)cc1Cl [Compound 46],–,IC50 (MRC-5): 0.84 ± 0.07 µM; IC50 (H1581): 0.018 ± 0.00178 µM; IC50 (A549): 0.38 ± 0.1 µM

# Continued, in another order:
inhibition at 0.1 µM (FGFR1 kinase),Compound,also measured
1.4%,"C=CC(=O)Nc1cccc(C)c1Nc1nc(Nc2ccc(N3CCN(C)CC3)cc2)ncc1Cl [Compound 11, N-(2-((5-chloro-2-((4-(4-methylpiperazine-1-yl)phenyl)amino)pyrimidine-4-yl)amino)-3-methylphenyl)acrylamide]",–
-1.1%,C=CC(=O)Nc1cccc(C)c1Nc1nc(Nc2ccc(N3CCN(C)CC3)cc2)ncc1C [Compound 12],–
-0.1%,C=CC(=O)Nc1cccc(C)c1Nc1nc(Nc2ccc(N3CCN(C)CC3)cc2)ncc1OC [Compound 13],–
11.4%,C=CC(=O)Nc1cccc(C)c1Nc1nc(Nc2ccc(N3CCN(C)CC3)cc2)ncc1C(F)(F)F [Compound 14],–
